Experimental data as given in patent US11033535B2, “Oxadiazoles and thiadiazoles as TGF-β inhibitors” (Southern Research Institute, priority 2017, dated 2021).
Read-outs that look alike come from different tables or passages of the source.

Assay: Pharmacokinetic evaluation following a single oral and intravenous administration
Assay type: in vivo, CD1 mouse
Settings: CD1, mouse, plasma; for C0 / AUC(0-inf) / AUC(0-t) / MRT inf / half-life / Vd: Table 10, IV Dose: 1 mg/kg
Method: A NMP stock solution was prepared by adding 1.136 mL of NMP to 5.68 mg of compound no. 42140 with vortexing and sonification, to obtain a solution with a concentration at 5 mg/mL of 42140:01. Next, to prepare an intravenous formulation, 0.100 mL of the 5 mg/mL stock solution was placed in a new vial. 0.100 mL of NMP and 0.400 mL of PEG400 were added with vortexing and sonification, followed by addition of 0.400 mL of saline with vortexing and sonification. […] 42140:01. Alternatively, to prepare an oral formulation, 0.200 mL of the 5 mg/mL stock solution was placed in a new vial. 0.400 mL of PEG400 was added with vortexing and sonification, followed by addition of 0.400 mL of saline with vortexing and sonifiction. […] 42140:01.
(§1) Briefly, the desired serial concentrations of working solutions were achieved by diluting a stock solution of the compound with 100% acetonitrile. 3 μL of working solutions (5, 10, 20, 50, 100, 500, 1000, 5000, 10000 ng/mL) were added to 30 μL of the blank CD1 mouse plasma to achieve calibration standards of 0.5-1000 ng/mL (0.5, 1, 2, 5, 10, 50, 100, 500, 1000 ng/mL) in a total volume of 33 μL. Five quality control samples at 1 ng/mL, 2 ng/mL, 5 ng/mL, 50 ng/mL and 800 ng/mL for plasma were prepared independently of those used for the calibration curves. These QC samples were prepared on the day of analysis in the same way as calibration standards.
Next, 33 μL standards, 33 μL QC samples, and 33 μL unknown samples (30 μL plasma with 3 μL blank solution) were added to 200 μL of acetonitrile containing IS mixture for precipitating protein, respectively. Then the samples were vortexed for 30 s. After centrifugation at 4 degree Celsius, 4000 rpm for 15 min, 3 μL of supernatant was injected into the LC/MS/MS system for quantitative analysis.
HPLC analysis was performed using 100% water with 0.1% formic acid (Solution A) and 100% acetonitrile with 0.1% formic acid (Solution B) with a flow rate of 0.6 mL/min.
A NMP stock solution was prepared by adding 2.092 mL of NMP to 10.46 mg of […] with vortexing and sonification, to obtain a solution with a concentration at 5 mg/mL of […]. Next, to prepare an intravenous formulation, 0.100 mL of the 5 mg/mL stock solution was placed in a new vial. 0.100 mL of NMP and 0.400 mL of PEG400 were added with vortexing and sonification, followed by addition of 0.400 mL of saline with vortexing and sonification. […] 42320:01. Alternatively, to prepare an oral formulation, 0.200 mL of the 5 mg/mL stock solution was placed in a new vial. 0.400 mL of PEG400 was added with vortexing and sonification, followed by addition of 0.400 mL of saline with vortexing and sonifiction. […] 42320:01.
as §1, with “50 ng/mL,” for “50 ng/mL”

[1] = iv, 1 mg/kg, Table 9, IV Dose: 1 mg/kg, Mouse 1, read-out: Concentration
[2] = iv, 1 mg/kg, Table 9, IV Dose: 1 mg/kg, Mouse 2, read-out: Concentration
[3] = iv, 1 mg/kg, Table 9, IV Dose: 1 mg/kg, Mouse 3, read-out: Concentration
[4] = iv, 1 mg/kg, Table 9, IV Dose: 1 mg/kg, mean, read-out: Concentration, Mean
[5] = po, 5 mg/kg, Table 11, PO Dose: 5 mg/kg, Mouse 4, read-out: Concentration
[6] = po, 5 mg/kg, Table 11, PO Dose: 5 mg/kg, Mouse 5, read-out: Concentration
[7] = po, 5 mg/kg, Table 11, PO Dose: 5 mg/kg, Mouse 6, read-out: Concentration
[8] = po, 5 mg/kg, Table 11, PO Dose: 5 mg/kg, mean, read-out: Concentration, Mean

SMILES: CC(=O)N[C@@H](Cc1ccc(CN(C)C)cc1)c1nnc(-c2cccc(OC(F)(F)F)c2)s1 [Compound 42320, N-(2-(4-((dimethylamino)methyl)phenyl)-1-(5-(3-(trifluoromethoxy)phenyl)-1,3,4-thiadiazol-2-yl)ethyl)acetamide]
- concentration at 5 min [1]: 86.9 ng/mL
- concentration at 5 min [2]: 90.3 ng/mL
- concentration at 5 min [3]: 85.7 ng/mL
- concentration at 5 min [4]: 87.6 ng/mL
- concentration at 0.25 h [1]: 68.4 ng/mL
- concentration at 0.25 h [2]: 65 ng/mL
- concentration at 0.25 h [3]: 68.3 ng/mL
- concentration at 0.25 h [4]: 67.2 ng/mL
- concentration at 0.5 h [1]: 68 ng/mL
- concentration at 0.5 h [2]: 59.2 ng/mL
- concentration at 0.5 h [3]: 52.7 ng/mL
- concentration at 0.5 h [4]: 60 ng/mL
- concentration at 1 h [1]: 41.2 ng/mL
- concentration at 1 h [2]: 39.4 ng/mL
- concentration at 1 h [3]: 47.1 ng/mL
- concentration at 1 h [4]: 42.6 ng/mL
- concentration at 2 h [1]: 26.5 ng/mL
- concentration at 2 h [2]: 23.9 ng/mL
- concentration at 2 h [3]: 25.9 ng/mL
- concentration at 2 h [4]: 25.4 ng/mL
- concentration at 4 h [1]: 11.9 ng/mL
- concentration at 4 h [2]: 9.71 ng/mL
- concentration at 4 h [3]: 13 ng/mL
- concentration at 4 h [4]: 11.5 ng/mL
- concentration at 8 h [1]: 4.08 ng/mL
- concentration at 8 h [2]: 3.66 ng/mL
- concentration at 8 h [3]: 5.31 ng/mL
- concentration at 8 h [4]: 4.35 ng/mL
- C0 (iv, 1 mg/kg, Mouse 1): 97.9 ng/mL
- AUC(0-inf) (iv, 1 mg/kg, Mouse 1, read-out: AUCInf): 183 ng·h/mL
- AUC(0-t) (iv, 1 mg/kg, Mouse 1, read-out: AUClast): 169 ng·h/mL
- MRT inf (iv, 1 mg/kg, Mouse 1, read-out: MRTInf—obs): 2.66 h
- half-life (iv, 1 mg/kg, Mouse 1, read-out: T1/2 (converted)): 2.27 h
- Vd (iv, 1 mg/kg, Mouse 1, read-out: Vss—obs): 14.6 L/kg
- C0 (iv, 1 mg/kg, Mouse 2): 106 ng/mL
- AUC(0-inf) (iv, 1 mg/kg, Mouse 2, read-out: AUCInf): 165 ng·h/mL
- AUC(0-t) (iv, 1 mg/kg, Mouse 2, read-out: AUClast): 153 ng·h/mL
- MRT inf (iv, 1 mg/kg, Mouse 2, read-out: MRTInf—obs): 2.59 h
- half-life (iv, 1 mg/kg, Mouse 2, read-out: T1/2 (converted)): 2.29 h
- Vd (iv, 1 mg/kg, Mouse 2, read-out: Vss—obs): 15.7 L/kg
- C0 (iv, 1 mg/kg, Mouse 3): 96 ng/mL
- AUC(0-inf) (iv, 1 mg/kg, Mouse 3, read-out: AUCInf): 193 ng·h/mL
- AUC(0-t) (iv, 1 mg/kg, Mouse 3, read-out: AUClast): 172 ng·h/mL
- MRT inf (iv, 1 mg/kg, Mouse 3, read-out: MRTInf—obs): 3.17 h
- half-life (iv, 1 mg/kg, Mouse 3, read-out: T1/2 (converted)): 2.68 h
- Vd (iv, 1 mg/kg, Mouse 3, read-out: Vss—obs): 16.4 L/kg
- AUC(0-inf) (iv, 1 mg/kg, mean, read-out: AUCInf, Mean): 180 ng·h/mL
- AUC(0-t) (iv, 1 mg/kg, mean, read-out: AUClast, Mean): 165 ng·h/mL
- MRT inf (iv, 1 mg/kg, mean, read-out: MRTInf—obs, Mean): 2.81 h
- half-life (iv, 1 mg/kg, mean, read-out: T1/2, Mean (converted)): 2.41 h
- Vd (iv, 1 mg/kg, mean, read-out: Vss—obs, Mean): 15.6 L/kg
- concentration at 0.25 h [5]: 100 ng/mL
- concentration at 0.25 h [6]: 71.4 ng/mL
- concentration at 0.25 h [7]: 78.6 ng/mL
- concentration at 0.25 h [8]: 83 ng/mL
- concentration at 0.5 h [5]: 201 ng/mL
- concentration at 0.5 h [6]: 121 ng/mL
- concentration at 0.5 h [7]: 122 ng/mL
- concentration at 0.5 h [8]: 148 ng/mL
- concentration at 1 h [5]: 193 ng/mL
- concentration at 1 h [6]: 119 ng/mL
- concentration at 1 h [7]: 112 ng/mL
- concentration at 1 h [8]: 141 ng/mL
